Data reported in PMC9928118, “Funneling modulatory peptide design with generative models: Discovery and characterization of disruptors of calcineurin protein-protein interactions” (PLOS Computational Biology, 2023).

Tested on: GST-tagged Cn
Experiment: PEPperPRINT peptide microarray binding assay with GST-tagged Cn
Method in brief: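 Qualitative binding: peptides printed on a PEPperPRINT microarray were incubated overnight at 4 °C with 1 mg/ml GST-tagged Cn, then detected with Alexa-Fluor 647 anti-GST antibody. Log fluorescence was baseline-corrected, averaged over duplicate spots, Z-normalized and averaged across five repeats.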

[1] = GST-tagged Cn, max over the chip locations
[2] = GST-tagged Cn, mean over the chip locations
[3] = GST-tagged Cn, max over the chip spots listed under Location on chip
[4] = GST-tagged Cn, mean over the chip spots listed under Location on chip
[5] = GST-tagged Cn, max over the spots on the chip (two locations)
[6] = GST-tagged Cn, mean over the spots on the chip (two locations)
[7] = GST-tagged Cn, max over the spots named in Location on chip
[8] = GST-tagged Cn, mean over the spots named in Location on chip
[9] = max over the chip locations listed for the peptide (two spots)
[10] = mean over the chip locations listed for the peptide (two spots)
[11] = max over the spots listed under Location on chip
[12] = mean over the spots listed under Location on chip

RNPGQALLTLRGHKAQ [SeqRBMlowT_5824]
Chip Fluorescence (max) [1]: -0.7814
Chip Fluorescence (mean) [2]: -1.225

TFWTNPQFRLKLEDPD [SeqRBMlowT_699]
Chip Fluorescence (max) [3]: 0.8365
Chip Fluorescence (mean) [4]: -0.3514

ADQELSSFQPFYIEAS [Seqshuffled_9636]
Chip Fluorescence (max) [3]: 0.9604
Chip Fluorescence (mean) [4]: 0.1044

PKMAPPCINIDFAPTN [SeqRBMlowT_319]
Chip Fluorescence (max) [5]: 1.2058
Chip Fluorescence (mean) [6]: -0.8596

TFHREPQNRLYVLSAV [SeqRBM_456]
Chip Fluorescence (max) [1]: 0.238
Chip Fluorescence (mean) [2]: -1.007

HSKFIPKLSIQSPVLH [SeqRBMlowT_6746]
Chip Fluorescence (max) [7]: 1.7974
Chip Fluorescence (mean) [8]: -0.2423

QRFFCVRYDVNPCINW [Seqrandom_9944]
Chip Fluorescence (max) [9]: 3.709
Chip Fluorescence (mean) [10]: 0.2678

RNPGTALLELRGHSAS [SeqRBMlowT_6200]
Chip Fluorescence (max) [11]: 2.68
Chip Fluorescence (mean) [12]: 1.087

PSPDQPGIVVHTCEDD [SeqRBMlowT_9795]
Chip Fluorescence (max) [3]: 0.973
Chip Fluorescence (mean) [4]: 0.3644

RCISAYKLDSVMMDPS [Seqrandom_9957]
Chip Fluorescence (max) [9]: 3.463
Chip Fluorescence (mean) [10]: 0.1448

TFWTNPQFTITLEEPD [SeqRBMlowT_1494]
Chip Fluorescence (max) [7]: 1.659
Chip Fluorescence (mean) [8]: -0.5285

RKDSAVTQWGFSNLWA [Seqrandom_9950]
Chip Fluorescence (max) [9]: 4.744
Chip Fluorescence (mean) [10]: 1.033

ESFGNELIPFNASKSY [Seqshuffled_9947]
Chip Fluorescence (max) [1]: -0.1304
Chip Fluorescence (mean) [2]: -0.5132

ERWSIGFGDMFCNQFK [Seqrandom_9989]
Chip Fluorescence (max) [11]: 2.7221
Chip Fluorescence (mean) [12]: 0.53

HVEDTTEFALQRPSND [Seqshuffled_9422]
Chip Fluorescence (max) [7]: 1.612
Chip Fluorescence (mean) [8]: 0.1762

ADGAGVGIVITVTEAE [SeqRBMlowT_1411]
Chip Fluorescence (max) [5]: 1.31
Chip Fluorescence (mean) [6]: -0.2973

STSSLPTFSFSPPAPS [SeqRBMlowT_2355]
Chip Fluorescence (max) [7]: 1.468
Chip Fluorescence (mean) [8]: -0.4662

KSKAAPSIVIHIPEEA [SeqRBM_8661]
Chip Fluorescence (max) [7]: 1.362
Chip Fluorescence (mean) [8]: 0.2601

HVSSSPDVTLKIPQHR [SeqRBMlowT_2187]
Chip Fluorescence (max) [3]: 0.8915
Chip Fluorescence (mean) [4]: -0.5849

KPFECPSIQITSISPN [SeqNFATC3_Homo_sapiens]
Chip Fluorescence (max) [3]: 0.8784
Chip Fluorescence (mean) [4]: -0.3746

FETSHPTVQLKIPQLR [SeqLCORL_Pteropus_alecto]
Chip Fluorescence (max) [11]: 2.606
Chip Fluorescence (mean) [12]: -0.1576

ASGLSPRIEITPSHEL [SeqNFATC2_Homo_sapiens]
Chip Fluorescence (max) [5]: 0.9983
Chip Fluorescence (mean) [6]: 0.1363

RQGAGPILVLEGHWDA [SeqRBM_4400]
Chip Fluorescence (max) [11]: 3.288
Chip Fluorescence (mean) [12]: -1.788

KVTTLKSVSPAIAAPE [Seqshuffled_1741]
Chip Fluorescence (max) [3]: 0.7857
Chip Fluorescence (mean) [4]: -0.5033

TFWTNPQYRIKLEEPD [SeqRBMlowT_34]
Chip Fluorescence (max) [1]: 0.1832
Chip Fluorescence (mean) [2]: -0.5691

RAYINPFMQFIDGGRK [SeqRBMlowT_4070]
Chip Fluorescence (max) [9]: 3.668
Chip Fluorescence (mean) [10]: 2.003

NDHALPEITVTPAELP [SeqRBM_7856]
Chip Fluorescence (max) [9]: 4.823
Chip Fluorescence (mean) [10]: 1.654

DRMAQDSMGWCRECLM [Seqrandom_9951]
Chip Fluorescence (max) [9]: 3.639
Chip Fluorescence (mean) [10]: 1.593

KTGMATDMQFNPIEQH [Seqshuffled_2687]
Chip Fluorescence (max) [3]: 0.7078
Chip Fluorescence (mean) [4]: 0.0887

LTDAAPEVVVSKPEHN [SeqRBMlowT_7696]
Chip Fluorescence (max) [5]: 1.26
Chip Fluorescence (mean) [6]: 0.2646

SVDKHPRVYVATSRED [SeqRBM_4749]
Chip Fluorescence (max) [9]: 4.793
Chip Fluorescence (mean) [10]: 0.8161

LNLKIPEIDSSDMSAH [SeqFLNA_Erinaceus_europaeus]
Chip Fluorescence (max) [5]: 1.157
Chip Fluorescence (mean) [6]: 0.3599

SAGAGVGIVITVTEAE [SeqRBMlowT_164]
Chip Fluorescence (max) [7]: 1.523
Chip Fluorescence (mean) [8]: -0.8688

RQPGQALLTLRGHSAP [SeqRBMlowT_5806]
Chip Fluorescence (max) [7]: 1.328
Chip Fluorescence (mean) [8]: -0.3044

QELFISNITVDHSGSY [SeqCEACAM5_Aotus_nancymaae]
Chip Fluorescence (max) [9]: 6.254
Chip Fluorescence (mean) [10]: 1.438

RAYINPFMQFIDGGRF [SeqRBMlowT_3663]
Chip Fluorescence (max) [3]: 0.6841
Chip Fluorescence (mean) [4]: -0.1666

LKDEIPEVRLNIISSL [SeqRBMlowT_1013]
Chip Fluorescence (max) [7]: 1.476
Chip Fluorescence (mean) [8]: 0.5558

SSKSLPTFSFSSPVSH [SeqRBMlowT_6060]
Chip Fluorescence (max) [7]: 1.331
Chip Fluorescence (mean) [8]: 0.1061

HSKLIPKVSIQSPVHH [SeqRBMlowT_2323]
Chip Fluorescence (max) [1]: 0.1516
Chip Fluorescence (mean) [2]: -0.9286

LNLEIPEVRLNIISAL [SeqRBMlowT_8463]
Chip Fluorescence (max) [1]: 0.2778
Chip Fluorescence (mean) [2]: -0.136

TFWANPQFKIRLEEPD [SeqRBMlowT_2213]
Chip Fluorescence (max) [5]: 1.142
Chip Fluorescence (mean) [6]: -0.04147

PSMYQPHIIVKVAETE [SeqRBM_4049]
Chip Fluorescence (max) [5]: 1.118
Chip Fluorescence (mean) [6]: 0.1884

FAKHWPKLSDVSPVAH [SeqRBM_8299]
Chip Fluorescence (max) [1]: 0.2862
Chip Fluorescence (mean) [2]: -1.095

PSSCTPHLYARVHKGQ [SeqRBM_1451]
Chip Fluorescence (max) [1]: 0.2872
Chip Fluorescence (mean) [2]: -1.296

DTLWIGSGTVTDSGNY [SeqRBM_1220]
Chip Fluorescence (max) [9]: 3.766
Chip Fluorescence (mean) [10]: 0.1629

TFWANPQYKIHLEEED [SeqRBMlowT_4653]
Chip Fluorescence (max) [9]: 4.098
Chip Fluorescence (mean) [10]: 0.694

TGTLCKSGMLVSTRMS [SeqRBM_1323]
Chip Fluorescence (max) [3]: 0.8817
Chip Fluorescence (mean) [4]: -0.07521

RTPGTFPLTLKGHKKQ [SeqRBMlowT_6382]
Chip Fluorescence (max) [7]: 1.729
Chip Fluorescence (mean) [8]: 0.4598

VHQCTPEVSVSVCFTC [SeqRBM_8420]
Chip Fluorescence (max) [1]: 0.0911
Chip Fluorescence (mean) [2]: -0.9088

TFWTNPQYRVTVTDPD [SeqRBMlowT_615]
Chip Fluorescence (max) [7]: 1.649
Chip Fluorescence (mean) [8]: 0.4883

LTWTSNDMKLHLSGVS [Seqshuffled_9827]
Chip Fluorescence (max) [3]: 0.7935
Chip Fluorescence (mean) [4]: -0.8344

RQPGQALLTLRGHSAS [SeqRBMlowT_5869]
Chip Fluorescence (max) [3]: 0.727
Chip Fluorescence (mean) [4]: -0.3106

TFWTNPQFRLTLLSPD [SeqRBMlowT_9173]
Chip Fluorescence (max) [5]: 1.238
Chip Fluorescence (mean) [6]: 0.4236

NIEKMPELQACGHTSF [SeqRBM_2022]
Chip Fluorescence (max) [9]: 4.705
Chip Fluorescence (mean) [10]: 1.485

RNPESPSLFLEGHLSR [SeqRBMlowT_8778]
Chip Fluorescence (max) [11]: 3.012
Chip Fluorescence (mean) [12]: 0.475

RAYINPFMTFTDGGRR [SeqRBMlowT_3400]
Chip Fluorescence (max) [11]: 3.064
Chip Fluorescence (mean) [12]: 0.978

GYDIDPAISFDSDLML [Seqshuffled_9502]
Chip Fluorescence (max) [11]: 3.174
Chip Fluorescence (mean) [12]: 2.023

VSLKIPGSSAIDLTAS [SeqFLNA_Trichinella_nativa]
Chip Fluorescence (max) [1]: -0.0417
Chip Fluorescence (mean) [2]: -0.9527

STSSLPTFSFSSPQST [SeqRBMlowT_3930]
Chip Fluorescence (max) [1]: -0.1298
Chip Fluorescence (mean) [2]: -1.588

KAYINPFMQFIDGGRR [SeqRBMlowT_549]
Chip Fluorescence (max) [11]: 3.298
Chip Fluorescence (mean) [12]: 1.4015

RQPGTALLTLRGHKKQ [SeqRBMlowT_5805]
Chip Fluorescence (max) [7]: 1.524
Chip Fluorescence (mean) [8]: 0.2674

KDMLIPRPSSQDSGAY [SeqRBM_5587]
Chip Fluorescence (max) [7]: 1.626
Chip Fluorescence (mean) [8]: -0.4019

PKEDLPVITIDPASPQ [SeqNHE1_Pan_troglodytes]
Chip Fluorescence (max) [3]: 0.9606
Chip Fluorescence (mean) [4]: -0.5019

TFWTNPQYRLNIIDPD [SeqRBMlowT_94]
Chip Fluorescence (max) [5]: 1.251
Chip Fluorescence (mean) [6]: -0.6992
